pKi: −log10 of the molar value.
Target: Aβ1–40 fibrils (amyloid-β) (Homo sapiens, UniProt P05067)
Format: binding

Sequence of Aβ1–40 fibrils (amyloid-β) (P05067 672-711): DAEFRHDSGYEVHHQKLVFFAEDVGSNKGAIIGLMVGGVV

| SMILES | pKi |
| --- | --- |
| COc1cc(/C=C/c2cc(C)c(O)c(C)c2)ccc1/C=C/c1ccc(C(=O)O)cc1 [compound 1, 4-((E)-4-((E)-4-hydroxy-3,5-dimethylstyryl)-2-methoxystyryl) benzoic acid] | 8.07 |
| COc1cc(/C=C/c2ccc(O)cc2)ccc1/C=C/c1ccc(O)cc1 [compound 2, methoxy-X04] | 7.63 |

From paper PMC8788879 (Nuclear medicine and biology, 2020)
